Laboratory results from ChEMBL document CHEMBL3046756, “Synthesis, anti-inflammatory, and structure antioxidant activity relationship of novel 4-quinazoline” (Med Chem Res, 2013).

Columns and labels:
[1] = tested on: Rattus norvegicus; experiment: Effect on SGOT level in Wistar Rattus norvegicus (rat) at 150 mg/kg, po qd after 10 days (reference value: 145.50 +/- 13.86 U/I); assay type: functional
[2] = tested on: Rattus norvegicus; experiment: Anti-inflammatory activity in Wistar Rattus norvegicus (rat) assessed as inhibition of carrageenan-induced paw edema at 150 mg/kg, po administered 30 min prior to carrageenan challenge measured at 90 min relative to untreated control; assay type: functional
[3] = tested on: Rattus norvegicus; experiment: Anti-inflammatory activity in Wistar Rattus norvegicus (rat) assessed as inhibition of carrageenan-induced paw edema at 150 mg/kg, po administered 30 min prior to carrageenan challenge measured at 60 min relative to untreated control; assay type: functional
[4] = tested on: Mus musculus; experiment: Toxicity in albino Mus musculus (mouse) assessed as rapid respiration at 150 to 900 mg/kg, ip measured within 1 to 2 hr; assay type: organism-based; set-up: route intraperitoneal; conditions: in vivo
[5] = tested on: Rattus norvegicus; experiment: Effect on GSH level in Wistar Rattus norvegicus (rat) liver measured per mg of protein at 100 mg/kg, po after 10 days (reference value: 1.84 +/- 0.092 mg); assay type: functional
[6] = Antioxidant activity assessed as Fe2+ chelating activity at 1.5 mg/ml after 60 min by spectrophotometric analysis; assay type: functional
[7] = tested on: Rattus norvegicus; experiment: Effect on GST level in Wistar Rattus norvegicus (rat) liver measured CDNB conjugated per min per mg of protein at 150 mg/kg, po after 10 days (reference value: 0.86 +/- 0.08 mmol); assay type: functional
[8] = tested on: Rattus norvegicus; experiment: Effect on GST level in Wistar Rattus norvegicus (rat) liver measured CDNB conjugated per min per mg of protein at 50 mg/kg, po after 10 days (reference value: 0.86 +/- 0.08 mmol); assay type: functional
[9] = tested on: Rattus norvegicus; experiment: Effect on ALP level in Wistar Rattus norvegicus (rat) serum at 50 mg/kg, po qd after 10 days (reference value: 39.5 +/- 3.86 U/I); assay type: functional
[10] = tested on: Rattus norvegicus; experiment: Effect on glutathione reductase level in Wistar Rattus norvegicus (rat) liver measured NADPH oxidized per min per mg of protein at 100 mg/kg, po after 10 days (reference value: 4.19 +/ 0.42 nmol); assay type: functional
[11] = tested on: Rattus norvegicus; experiment: Effect on SGPT level in Wistar Rattus norvegicus (rat) at 150 mg/kg, po qd after 10 days (reference value: 38.77 +/- 4.25 U/I); assay type: functional
[12] = tested on: Rattus norvegicus; experiment: Antipyretic activity in Wistar Rattus norvegicus (rat) assessed as decrease in Brewer's yeast solution-induced hyperthermia at 50 mg/kg, po measured after 1 hr (reference value: 37 +/- 3.55 degC); assay type: functional
[13] = Toxicity in ip dosed albino Mus musculus (mouse) assessed as mortality measured within 24 hr; assay type: organism-based; conditions: in vivo
[14] = tested on: Rattus norvegicus; experiment: Effect on gamma-glutamyl transferase level in Wistar Rattus norvegicus (rat) serum at 100 mg/kg, po qd after 10 days (reference value: 0.57 +/- 0.04 U/I); assay type: functional
[15] = tested on: Rattus norvegicus; experiment: Antipyretic activity in Wistar Rattus norvegicus (rat) assessed as decrease in Brewer's yeast solution-induced hyperthermia at 50 mg/kg, po measured after 2 hr (reference value: 37 +/- 1.7 degC); assay type: functional
[16] = tested on: Rattus norvegicus; experiment: Anti-inflammatory activity in Wistar Rattus norvegicus (rat) assessed as inhibition of carrageenan-induced paw edema at 100 mg/kg, po administered 30 min prior to carrageenan challenge measured at 180 min relative to untreated control; assay type: functional
[17] = tested on: Rattus norvegicus; experiment: Anti-inflammatory activity in Wistar Rattus norvegicus (rat) assessed as inhibition of carrageenan-induced paw edema at 150 mg/kg, po administered 30 min prior to carrageenan challenge measured at 30 min post carrageenan challenge relative to untreated control; assay type: functional
[18] = tested on: Rattus norvegicus; experiment: Anti-inflammatory activity in Wistar Rattus norvegicus (rat) assessed as inhibition of carrageenan-induced paw edema at 150 mg/kg, po administered 30 min prior to carrageenan challenge measured at 180 min relative to untreated control; assay type: functional
[19] = tested on: Rattus norvegicus; experiment: Anti-inflammatory activity in Wistar Rattus norvegicus (rat) assessed as inhibition of carrageenan-induced paw edema at 50 mg/kg, po administered 30 min prior to carrageenan challenge measured at 120 min relative to untreated control; assay type: functional
[20] = tested on: Rattus norvegicus; experiment: Effect on LDH level in Wistar Rattus norvegicus (rat) serum at 100 mg/kg, po qd after 10 days (reference value: 249.89 +/- 13.26 U/I); assay type: functional
[21] = tested on: Mus musculus; experiment: Toxicity in albino Mus musculus (mouse) assessed as tremor in hind limbs at 150 to 900 mg/kg, ip measured within 24 hr; assay type: organism-based, Hindlimb; set-up: dose 150-900 mg/kg, route intraperitoneal; conditions: in vivo
[22] = tested on: Rattus norvegicus; experiment: Effect on glutathione peroxidase level in Wistar Rattus norvegicus (rat) liver measured GSH oxidized per min per mg of protein at 50 mg/kg, po after 10 days (reference value: 47.47 +/- 3.86 mmol); assay type: functional
[23] = tested on: Mus musculus; experiment: Toxicity in albino Mus musculus (mouse) assessed as change in eye color at 150 to 900 mg/kg, ip measured within 24 hr; assay type: organism-based; set-up: dose 150-900 mg/kg, route intraperitoneal; conditions: in vivo
[24] = tested on: Rattus norvegicus; experiment: Effect on ALP level in Wistar Rattus norvegicus (rat) serum at 100 mg/kg, po qd after 10 days (reference value: 39.5 +/- 3.86 U/I); assay type: functional
[25] = tested on: Rattus norvegicus; experiment: Effect on GSH level in Wistar Rattus norvegicus (rat) liver measured per mg of protein at 50 mg/kg, po after 10 days (reference value: 1.84 +/- 0.092 mg); assay type: functional
[26] = tested on: Rattus norvegicus; experiment: Effect on SGOT level in Wistar Rattus norvegicus (rat) at 100 mg/kg, po qd after 10 days (reference value: 145.50 +/- 13.86 U/I); assay type: functional
[27] = tested on: Rattus norvegicus; experiment: Effect on SGPT level in Wistar Rattus norvegicus (rat) at 100 mg/kg, po qd after 10 days (reference value: 38.77 +/- 4.25 U/I); assay type: functional
[28] = tested on: Rattus norvegicus; experiment: Antipyretic activity in Wistar Rattus norvegicus (rat) assessed as decrease in Brewer's yeast solution-induced hyperthermia at 150 mg/kg, po measured after 1 hr (reference value: 37 +/- 3.55 degC); assay type: functional
[29] = tested on: Rattus norvegicus; experiment: Effect on GSH level in Wistar Rattus norvegicus (rat) liver measured per mg of protein at 150 mg/kg, po after 10 days (reference value: 1.84 +/- 0.092 mg); assay type: functional
[30] = tested on: Mus musculus; experiment: Toxicity in albino Mus musculus (mouse) assessed as change in toes color at 650 to 1800 mg/kg, ip measured within 24 hr; assay type: organism-based; set-up: dose 650-1800 mg/kg, route intraperitoneal; conditions: in vivo
[31] = tested on: Mus musculus; experiment: Toxicity in albino Mus musculus (mouse) assessed as increase in heart rate at 650 to 1800 mg/kg, ip measured within 1 to 2 hr; assay type: organism-based; set-up: route intraperitoneal; conditions: in vivo
[32] = tested on: Mus musculus; experiment: Toxicity in albino Mus musculus (mouse) assessed as change in skin color at 650 to 1800 mg/kg, ip measured within 24 hr; assay type: organism-based; set-up: dose 650-1800 mg/kg, route intraperitoneal; conditions: in vivo
[33] = tested on: Mus musculus; experiment: Toxicity in albino Mus musculus (mouse) assessed as change in eye color at 650 to 1800 mg/kg, ip measured within 24 hr; assay type: organism-based; set-up: dose 650-1800 mg/kg, route intraperitoneal; conditions: in vivo
[34] = tested on: Mus musculus; experiment: Toxicity in albino Mus musculus (mouse) assessed as tremor in hind limbs at 650 to 1800 mg/kg, ip measured within 24 hr; assay type: organism-based, Hindlimb; set-up: dose 650-1800 mg/kg, route intraperitoneal; conditions: in vivo
[35] = tested on: Mus musculus; experiment: Toxicity in albino Mus musculus (mouse) assessed as rapid respiration at 650 to 1800 mg/kg, ip measured within 1 to 2 hr; assay type: organism-based; set-up: route intraperitoneal; conditions: in vivo

O=c1c2ccccc2nc2n1NC(c1ccc(O)c(O)c1)C2 (stereo unspecified)
Activity [1]: 134.55 U/L
inhibition in vivo at 150 mg/kg [2]: 44.2%
inhibition in vivo at 150 mg/kg [3]: 34.2%
Activity [4]: Toxic
Activity [5]: 1.85 mg
Activity [6]: 22%
Activity [7]: 1.34 mmol
Activity [8]: 0.97 mmol
Activity [9]: 40.77 U/L
Activity [10]: 4.25 nmol
Activity [11]: 33.26 U/L
T [12]: 37.6 °C
LD50 at 24 h [13]: 495 mg/kg
Activity [14]: 0.51 U/L
T [15]: 36.5 °C
inhibition in vivo at 100 mg/kg [16]: 48.3%
inhibition in vivo at 150 mg/kg [17]: 8.48%
inhibition in vivo at 150 mg/kg [18]: 54.6%
inhibition in vivo at 50 mg/kg [19]: 53.7%
Activity [20]: 243.46 U/L
Activity [21]: Toxic
Activity [22]: 49.25 mmol
Activity [23]: Toxic
Activity [24]: 35.64 U/L
Activity [25]: 1.8 mg
Activity [26]: 136.34 U/L
Activity [27]: 36.15 U/L
T [28]: 37.5 °C
Activity [29]: 2.39 mg

COC(=O)c1ccccc1NC(=O)/C=C/c1ccc(O)c(O)c1
Activity [1]: 129.32 U/L
inhibition in vivo at 150 mg/kg [2]: 62.6%
inhibition in vivo at 150 mg/kg [3]: 52.7%
Activity [5]: 2.39 mg
Activity [6]: 30%
Activity [7]: 1.97 mmol
Activity [8]: 1.3 mmol
Activity [9]: 38.3 U/L
Activity [10]: 5.59 nmol
Activity [11]: 40.84 U/L
Activity [30]: Toxic
Activity [31]: Toxic
T [12]: 37.7 °C
LD50 at 24 h [13]: 1140 mg/kg
Activity [14]: 0.51 U/L
T [15]: 37 °C
inhibition in vivo at 100 mg/kg [16]: 70.7%
inhibition in vivo at 150 mg/kg [17]: 37.9%
inhibition in vivo at 150 mg/kg [18]: 78.9%
inhibition in vivo at 50 mg/kg [19]: 63.8%
Activity [20]: 239.19 U/L
Activity [22]: 49.11 mmol
Activity [32]: Toxic
Activity [24]: 35.64 U/L
Activity [25]: 1.94 mg
Activity [33]: Toxic
Activity [26]: 133.79 U/L
Activity [27]: 43.21 U/L
T [28]: 36.9 °C
Activity [34]: Toxic
Activity [35]: Toxic
Activity [29]: 2.95 mg
